In ChEMBL document CHEMBL3862042 (J Med Chem, 2017):
pEC50, pIC50: −log10 of the molar value.

How the values were obtained:
[1] = molecular target: T1, Phosphatidylinositol 4-kinase type 2-alpha (Homo sapiens, UniProt Q9BTU6); test: Inhibition of PI4K2A (unknown origin) assessed as remaining enzyme activity by ADP-Glo kinase assay relative to untreated control; set-up: concentration or dose not given beside the values
[2] = tested on: Hepatitis C virus; test: microbe, parasite or virus in culture; details: genotype 1b, Huh-7, 72 h
[3] = tested on: Hepatitis C virus; test: microbe, parasite or virus in culture; details: subtype 2a JFH1, Huh-7, 72 h
[4] = tested on: Coxsackievirus B3; test: microbe, parasite or virus in culture; details: Enterovirus B, Nancy, HeLa, 4 h
[5] = Cytotoxicity against human HeLa cells incubated for 3 days by MTT assay; format: toxicity, cell-based
[6] = tested on: Human rhinovirus 1A; test: microbe, parasite or virus in culture; details: HeLa, 72 h
[7] = molecular target: Phosphatidylinositol 4-kinase alpha (Homo sapiens, UniProt P42356); test: Inhibition of PI4KA (unknown origin) by ADP-Glo kinase assay
Chain of Phosphatidylinositol 4-kinase alpha (P42356 whole entry): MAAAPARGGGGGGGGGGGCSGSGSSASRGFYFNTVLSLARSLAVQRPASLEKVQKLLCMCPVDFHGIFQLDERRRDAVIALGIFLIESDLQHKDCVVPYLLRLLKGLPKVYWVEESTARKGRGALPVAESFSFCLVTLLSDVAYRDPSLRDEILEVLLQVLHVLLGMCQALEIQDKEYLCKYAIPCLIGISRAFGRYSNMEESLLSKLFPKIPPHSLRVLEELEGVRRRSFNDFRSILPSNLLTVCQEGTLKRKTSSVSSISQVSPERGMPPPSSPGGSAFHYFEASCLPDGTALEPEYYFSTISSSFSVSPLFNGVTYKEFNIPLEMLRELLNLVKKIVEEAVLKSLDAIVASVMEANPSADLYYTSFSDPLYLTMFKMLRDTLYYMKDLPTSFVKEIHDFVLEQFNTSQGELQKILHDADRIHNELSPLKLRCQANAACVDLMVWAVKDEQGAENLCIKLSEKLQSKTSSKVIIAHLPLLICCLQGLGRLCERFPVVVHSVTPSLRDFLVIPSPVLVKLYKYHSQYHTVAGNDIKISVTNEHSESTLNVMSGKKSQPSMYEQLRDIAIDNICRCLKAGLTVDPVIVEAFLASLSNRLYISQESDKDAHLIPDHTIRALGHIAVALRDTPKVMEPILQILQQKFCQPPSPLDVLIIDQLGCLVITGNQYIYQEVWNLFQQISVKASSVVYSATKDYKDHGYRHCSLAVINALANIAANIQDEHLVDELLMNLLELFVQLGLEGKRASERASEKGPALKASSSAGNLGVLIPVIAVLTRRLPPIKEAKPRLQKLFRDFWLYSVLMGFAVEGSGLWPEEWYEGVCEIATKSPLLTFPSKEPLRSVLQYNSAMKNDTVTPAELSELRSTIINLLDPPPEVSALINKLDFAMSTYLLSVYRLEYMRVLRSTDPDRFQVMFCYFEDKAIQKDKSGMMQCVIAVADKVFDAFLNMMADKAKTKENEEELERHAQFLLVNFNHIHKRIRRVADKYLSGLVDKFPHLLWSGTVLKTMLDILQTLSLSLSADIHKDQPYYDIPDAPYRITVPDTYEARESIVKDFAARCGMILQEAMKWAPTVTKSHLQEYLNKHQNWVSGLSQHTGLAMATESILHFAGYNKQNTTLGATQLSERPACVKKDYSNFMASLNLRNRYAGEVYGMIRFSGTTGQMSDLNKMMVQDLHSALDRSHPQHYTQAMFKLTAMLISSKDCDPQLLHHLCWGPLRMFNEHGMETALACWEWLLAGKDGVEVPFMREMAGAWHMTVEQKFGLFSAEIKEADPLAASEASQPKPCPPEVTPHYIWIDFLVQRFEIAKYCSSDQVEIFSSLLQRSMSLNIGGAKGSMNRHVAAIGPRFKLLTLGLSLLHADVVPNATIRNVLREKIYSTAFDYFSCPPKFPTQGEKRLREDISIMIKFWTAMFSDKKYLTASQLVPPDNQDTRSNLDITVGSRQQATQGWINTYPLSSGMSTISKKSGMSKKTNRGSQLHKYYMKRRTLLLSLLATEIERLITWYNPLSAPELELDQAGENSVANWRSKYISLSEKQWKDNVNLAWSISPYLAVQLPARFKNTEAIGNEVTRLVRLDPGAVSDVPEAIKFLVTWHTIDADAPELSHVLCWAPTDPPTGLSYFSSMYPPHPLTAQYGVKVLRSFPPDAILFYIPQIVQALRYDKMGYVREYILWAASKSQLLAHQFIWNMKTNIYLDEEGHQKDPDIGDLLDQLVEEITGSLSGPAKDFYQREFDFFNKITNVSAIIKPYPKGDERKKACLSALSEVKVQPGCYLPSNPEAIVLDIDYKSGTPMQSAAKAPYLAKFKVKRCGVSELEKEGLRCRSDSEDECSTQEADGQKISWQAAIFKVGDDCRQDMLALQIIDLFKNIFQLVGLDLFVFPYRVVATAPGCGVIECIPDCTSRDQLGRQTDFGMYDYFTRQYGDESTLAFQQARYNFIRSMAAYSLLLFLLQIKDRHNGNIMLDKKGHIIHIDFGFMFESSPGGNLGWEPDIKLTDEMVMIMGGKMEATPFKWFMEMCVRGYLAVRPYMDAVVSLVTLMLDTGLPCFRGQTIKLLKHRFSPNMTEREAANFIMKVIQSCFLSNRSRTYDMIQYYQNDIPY

[8] = molecular target: T1, Phosphatidylinositol 4-kinase type 2-alpha; test: Inhibition of PI4K2A (unknown origin) by ADP-Glo kinase assay
[9] = molecular target: Phosphatidylinositol 4,5-bisphosphate 3-kinase catalytic subunit beta isoform (Homo sapiens, UniProt P42338); test: Inhibition of PI3Kbeta (unknown origin) by ADP-Glo kinase assay
Chain of Phosphatidylinositol 4,5-bisphosphate 3-kinase catalytic subunit beta isoform (P42338 whole entry, canonical isoform): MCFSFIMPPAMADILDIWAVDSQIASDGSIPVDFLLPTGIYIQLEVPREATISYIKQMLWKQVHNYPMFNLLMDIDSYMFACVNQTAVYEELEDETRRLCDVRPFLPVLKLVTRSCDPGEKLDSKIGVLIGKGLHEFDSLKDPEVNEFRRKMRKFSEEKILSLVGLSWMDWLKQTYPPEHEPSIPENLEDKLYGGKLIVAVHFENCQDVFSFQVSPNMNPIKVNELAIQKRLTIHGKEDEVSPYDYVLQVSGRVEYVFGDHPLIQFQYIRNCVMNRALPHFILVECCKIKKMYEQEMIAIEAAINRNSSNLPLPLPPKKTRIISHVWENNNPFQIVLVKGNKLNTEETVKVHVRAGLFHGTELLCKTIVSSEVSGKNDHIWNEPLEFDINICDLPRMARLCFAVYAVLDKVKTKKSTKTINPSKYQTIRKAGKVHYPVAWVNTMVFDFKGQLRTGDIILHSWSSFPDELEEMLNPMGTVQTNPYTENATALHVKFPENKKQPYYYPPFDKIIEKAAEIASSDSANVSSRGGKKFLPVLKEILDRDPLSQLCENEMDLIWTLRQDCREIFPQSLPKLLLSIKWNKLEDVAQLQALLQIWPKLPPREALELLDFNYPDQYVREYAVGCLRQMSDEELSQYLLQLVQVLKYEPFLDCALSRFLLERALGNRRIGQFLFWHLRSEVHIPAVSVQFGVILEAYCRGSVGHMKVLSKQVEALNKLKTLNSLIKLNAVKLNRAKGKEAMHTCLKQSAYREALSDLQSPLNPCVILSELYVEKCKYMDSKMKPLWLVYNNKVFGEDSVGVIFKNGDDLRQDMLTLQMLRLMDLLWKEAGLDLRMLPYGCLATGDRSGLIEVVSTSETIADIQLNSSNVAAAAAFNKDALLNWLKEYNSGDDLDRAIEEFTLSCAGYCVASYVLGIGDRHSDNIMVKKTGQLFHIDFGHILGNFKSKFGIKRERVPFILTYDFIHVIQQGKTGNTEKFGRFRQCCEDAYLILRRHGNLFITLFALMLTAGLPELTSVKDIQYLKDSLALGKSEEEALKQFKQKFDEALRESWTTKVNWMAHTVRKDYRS

[10] = molecular target: Phosphatidylinositol 4,5-bisphosphate 3-kinase catalytic subunit alpha isoform (Homo sapiens, UniProt P42336); test: Inhibition of PI3Kalpha (unknown origin) by ADP-Glo kinase assay
[11] = molecular target: T2, Phosphatidylinositol 4-kinase beta (Homo sapiens, UniProt Q9UBF8); test: Inhibition of PI4KB (unknown origin) at 1 uM by ADP-Glo kinase assay
[12] = molecular target: Phosphatidylinositol 4,5-bisphosphate 3-kinase catalytic subunit gamma isoform (Homo sapiens, UniProt P48736); test: Inhibition of PI3Kgamma (unknown origin) by ADP-Glo kinase assay
[13] = molecular target: T3, Phosphatidylinositol 4,5-bisphosphate 3-kinase catalytic subunit delta isoform (Homo sapiens, UniProt O00329); test: Inhibition of PI3Kdelta (unknown origin) by ADP-Glo kinase assay
T3 sequence (O00329 whole entry): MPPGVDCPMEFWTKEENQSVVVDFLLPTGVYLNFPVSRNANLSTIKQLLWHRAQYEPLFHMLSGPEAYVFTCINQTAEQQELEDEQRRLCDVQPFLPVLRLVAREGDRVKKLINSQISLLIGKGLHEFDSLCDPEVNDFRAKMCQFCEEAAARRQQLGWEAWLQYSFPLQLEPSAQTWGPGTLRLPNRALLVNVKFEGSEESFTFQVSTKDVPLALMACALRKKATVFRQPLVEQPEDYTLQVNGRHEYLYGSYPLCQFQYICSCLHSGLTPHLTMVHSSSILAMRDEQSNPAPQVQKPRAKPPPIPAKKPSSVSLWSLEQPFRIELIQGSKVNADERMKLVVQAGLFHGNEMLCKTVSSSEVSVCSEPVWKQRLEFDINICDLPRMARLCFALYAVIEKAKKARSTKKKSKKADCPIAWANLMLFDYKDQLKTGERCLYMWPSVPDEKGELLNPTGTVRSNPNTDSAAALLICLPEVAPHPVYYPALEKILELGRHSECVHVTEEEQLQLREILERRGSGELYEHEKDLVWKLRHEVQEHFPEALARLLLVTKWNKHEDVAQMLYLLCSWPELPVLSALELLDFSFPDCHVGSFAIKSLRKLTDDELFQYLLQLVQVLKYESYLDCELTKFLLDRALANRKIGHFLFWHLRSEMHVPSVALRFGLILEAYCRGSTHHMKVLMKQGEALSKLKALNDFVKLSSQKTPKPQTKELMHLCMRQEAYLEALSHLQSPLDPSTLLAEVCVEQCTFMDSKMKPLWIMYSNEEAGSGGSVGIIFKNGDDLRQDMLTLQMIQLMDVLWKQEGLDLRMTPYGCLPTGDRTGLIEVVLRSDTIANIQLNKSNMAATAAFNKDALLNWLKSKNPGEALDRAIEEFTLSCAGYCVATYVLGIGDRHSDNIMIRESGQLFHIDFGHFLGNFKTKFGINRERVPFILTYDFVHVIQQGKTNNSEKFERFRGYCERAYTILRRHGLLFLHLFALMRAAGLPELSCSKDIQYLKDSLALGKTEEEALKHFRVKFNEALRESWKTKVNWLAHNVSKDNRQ

[14] = molecular target: T2, Phosphatidylinositol 4-kinase beta; test: Inhibition of PI4KB (unknown origin) by ADP-Glo kinase assay
Target sequence in this assay (Q9UBF8 whole entry, canonical isoform): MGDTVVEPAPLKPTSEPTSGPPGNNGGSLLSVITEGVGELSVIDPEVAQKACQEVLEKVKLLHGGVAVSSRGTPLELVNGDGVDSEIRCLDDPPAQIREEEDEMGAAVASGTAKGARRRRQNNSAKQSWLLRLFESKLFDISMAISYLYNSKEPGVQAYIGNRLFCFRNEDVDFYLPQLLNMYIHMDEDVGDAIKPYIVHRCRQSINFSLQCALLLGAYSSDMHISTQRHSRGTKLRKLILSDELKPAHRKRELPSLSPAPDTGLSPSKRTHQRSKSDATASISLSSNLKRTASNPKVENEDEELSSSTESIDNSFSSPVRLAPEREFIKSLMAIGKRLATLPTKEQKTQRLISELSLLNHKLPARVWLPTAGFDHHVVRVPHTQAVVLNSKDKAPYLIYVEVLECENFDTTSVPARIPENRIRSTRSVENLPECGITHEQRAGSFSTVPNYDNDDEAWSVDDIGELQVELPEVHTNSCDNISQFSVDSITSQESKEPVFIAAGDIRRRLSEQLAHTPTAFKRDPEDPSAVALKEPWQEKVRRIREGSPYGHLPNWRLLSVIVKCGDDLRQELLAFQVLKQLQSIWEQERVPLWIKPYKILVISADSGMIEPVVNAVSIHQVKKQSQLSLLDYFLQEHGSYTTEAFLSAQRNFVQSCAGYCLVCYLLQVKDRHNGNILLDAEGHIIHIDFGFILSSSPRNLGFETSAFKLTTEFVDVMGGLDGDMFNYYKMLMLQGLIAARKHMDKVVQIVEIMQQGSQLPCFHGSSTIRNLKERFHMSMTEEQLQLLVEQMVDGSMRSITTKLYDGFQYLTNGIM

T1 sequence (Q9BTU6 whole entry): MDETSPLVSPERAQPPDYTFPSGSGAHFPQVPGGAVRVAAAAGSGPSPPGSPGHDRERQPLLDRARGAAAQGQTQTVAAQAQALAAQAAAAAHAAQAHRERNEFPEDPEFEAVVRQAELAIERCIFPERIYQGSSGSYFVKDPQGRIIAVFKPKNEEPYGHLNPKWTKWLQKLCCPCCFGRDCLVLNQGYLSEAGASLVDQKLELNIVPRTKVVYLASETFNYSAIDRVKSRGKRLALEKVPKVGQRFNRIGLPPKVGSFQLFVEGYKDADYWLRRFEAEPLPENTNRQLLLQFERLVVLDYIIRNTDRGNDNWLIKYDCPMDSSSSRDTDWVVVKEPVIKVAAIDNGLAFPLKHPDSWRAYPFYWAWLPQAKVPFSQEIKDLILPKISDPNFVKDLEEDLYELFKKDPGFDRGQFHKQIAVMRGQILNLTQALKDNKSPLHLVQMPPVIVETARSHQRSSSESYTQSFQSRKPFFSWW

Structure (SMILES) | Activity [1] | pEC50 [2] | pEC50 [3] | pEC50 [4] | pEC50 [6] | CC50 at 72 h [5] | also measured
CCc1cc(CNc2cc(Cl)nn3c(-c4cccc(S(=O)(=O)N(C)C)c4)c(C)nc23)ccn1 | – | 6.41 | 5.06 | 5.96 | 7.21 | 15.4 µM | –
CCc1cc(CNc2cc(Cl)nn3c(-c4ccc(OC)c(S(=O)(=O)N5CCC(O)CC5)c4)c(C)nc23)ccn1 | 109% | 7.70 | 4.69 | 7.77 | > 8.00 | 8.4 µM | –
CCc1cc(CNc2cc(Cl)nn3c(-c4ccc(OC)c(S(=O)(=O)NC5CCC(N)CC5)c4)c(C)nc23)ccn1 (configuration not stated) | 101% | 5.04 | 4.58 | 7.25 | 7.16 | 5.76 µM | –
CCc1cc(CNc2cc(Cl)nn3c(-c4ccc(OC)c(S(=O)(=O)n5cccn5)c4)c(C)nc23)ccn1 | 112% | 6.02 | < 4.35 | 6.86 | > 8.00 | 61.9 µM | –
CCc1cc(CNc2cc(Cl)nn3c(-c4ccc(OC)c(S(=O)(=O)N5CCC(CO)CC5)c4)c(C)nc23)ccn1 | 115% | – | – | – | – | – | –
CCc1cc(CNc2cc(Cl)nn3c(-c4ccc(OC)c(S(=O)(=O)N(C)C)c4)c(C)nc23)ccn1 | 106% | – | – | – | – | – | –
CCc1cc(CNc2cc(Cl)nn3c(-c4ccc(OC)c(S(=O)(=O)NCCO)c4)c(C)nc23)ccn1 | 106% | 7.54 | 4.84 | 7.24 | 7.12 | 18.3 µM | pIC50 [7]: 4.87; pIC50 [8]: < 5.00; pIC50 [9]: > 5.00; pIC50 [10]: > 5.00; inhibition [11]: 50%; pIC50 [12]: > 5.00; pIC50 [13]: > 5.00
CCc1cc(CNc2cc(Cl)nn3c(-c4ccc(OC)c(S(=O)(=O)N5CCCCC5)c4)c(C)nc23)ccn1 | 99% | – | – | – | – | – | –
CCc1cc(CNc2cc(Cl)nn3c(-c4ccc(OC)c(S(=O)(=O)N5CCOCC5)c4)c(C)nc23)ccn1 | 97% | 5.99 | 4.59 | 7.08 | > 8.00 | 25.7 µM | –
CCc1cc(CNc2cc(Cl)nn3c(-c4ccc(OC)c(S(=O)(=O)NCCOC)c4)c(C)nc23)ccn1 | 104% | 6.38 | 4.55 | > 7.70 | > 8.00 | 9.14 µM | –
CCc1cc(CNc2cc(Cl)nn3c(-c4ccc(OC)c(S(=O)(=O)NC5CC5)c4)c(C)nc23)ccn1 | 114% | – | – | – | – | – | –
CCc1cc(CNc2cc(Cl)nn3c(-c4ccc(OC)c(S(=O)(=O)NCCN(C)C)c4)c(C)nc23)ccn1 | 100% | 6.46 | 5.07 | 6.82 | > 8.00 | 5.56 µM | –
CCc1cc(CNc2cc(Cl)nn3c(-c4ccc(OC)c(S(=O)(=O)NC(CC)CO)c4)c(C)nc23)ccn1 (configuration not stated) | 104% | > 7.70 | 5.03 | 6.32 | > 8.00 | 17.9 µM | –
CC(=O)NCCNc1cc(Cl)nn2c(-c3cccc(S(=O)(=O)N(C)C)c3)c(C)nc12 | – | – | – | – | – | – | pIC50 [7]: < 4.00; pIC50 [14]: 7.27
C=CCNS(=O)(=O)c1cc(-c2c(C)nc3c(NCc4ccnc(CC)c4)cc(Cl)nn23)ccc1OC | 105% | 6.18 | 4.70 | 7.92 | > 8.00 | 6.85 µM | –
CCc1cc(CNc2cc(Cl)nn3c(-c4ccc(OC)cc4)c(C)nc23)ccn1 | 101% | – | – | – | – | – | –

Now from value to compound, other results behind:

Activity [1] | pEC50 [2] | pEC50 [3] | pEC50 [4] | pEC50 [6] | Structure (SMILES) | CC50 at 72 h [5] | also measured
102% | – | – | – | – | COc1ccc(-c2c(C)nc3c(NCCNC(C)=O)cc(Cl)nn23)cc1S(=O)(=O)NC1CCC(N)CC1 (configuration not stated) | – | –
93% | 5.57 | 4.44 | 5.27 | 6.00 | C=CCNS(=O)(=O)c1cc(-c2c(C)nc3c(NCCNC(C)=O)cc(Cl)nn23)ccc1OC | 445 µM | –
85% | 5.74 | < 4.35 | 5.30 | 5.27 | COc1ccc(-c2c(C)nc3c(NCCNC(C)=O)cc(Cl)nn23)cc1S(=O)(=O)N1CCC(CO)CC1 | 131 µM | –
73% | – | – | – | – | CNCCNS(=O)(=O)c1cc(-c2c(C)nc3c(NCCNC(C)=O)cc(Cl)nn23)ccc1OC | – | –
77% | 5.47 | < 4.35 | 5.78 | 5.17 | CCC(CO)NS(=O)(=O)c1cc(-c2c(C)nc3c(NCCNC(C)=O)cc(Cl)nn23)ccc1OC (configuration not stated) | > 50 µM | –
88% | 5.99 | < 4.35 | 7.42 | 6.18 | COc1ccc(-c2c(C)nc3c(NCCNC(C)=O)cc(Cl)nn23)cc1S(=O)(=O)N1CCOCC1 | 89.2 µM | –
60% | – | – | – | – | COc1ccc(-c2c(C)nc3c(NCCNC(C)=O)cc(Cl)nn23)cc1S(=O)(=O)N1CCCCC1 | – | –
88% | – | – | – | – | COc1ccc(-c2c(C)nc3c(NCCNC(C)=O)cc(Cl)nn23)cc1S(=O)(=O)N1CCC(O)CC1 | – | –
105% | – | – | – | – | COc1ccc(-c2c(C)nc3c(NCCNC(C)=O)cc(Cl)nn23)cc1S(=O)(=O)NCCN(C)C | – | –
107% | – | – | – | – | COCCNS(=O)(=O)c1cc(-c2c(C)nc3c(NCCNC(C)=O)cc(Cl)nn23)ccc1OC | – | –
108% | – | – | – | – | COc1ccc(-c2c(C)nc3c(NCCNC(C)=O)cc(Cl)nn23)cc1S(=O)(=O)NC1CC1 | – | –
112% | – | – | – | – | COc1ccc(-c2c(C)nc3c(NCCNC(C)=O)cc(Cl)nn23)cc1S(=O)(=O)NCCO | – | –
104% | 6.23 | < 4.35 | 5.88 | 6.15 | COc1ccc(-c2c(C)nc3c(NCCNC(C)=O)cc(Cl)nn23)cc1S(=O)(=O)N(C)C | 84.2 µM | –
83% | – | – | – | – | COc1ccc(-c2c(C)nc3c(NCCNC(C)=O)cc(Cl)nn23)cc1S(=O)(=O)n1cccn1 | – | –
